This is an account of results in patent publication US12240838B2, “Inhibiting agents for Bruton's tyrosine kinase” (BIOGEN MA INC., priority 2019, dated 2025).

Each structure is given as a SMILES string.

The target of assay [1] is T1, BTK (Homo sapiens (Human), UniProt Q06187). Kind of assay: In Vitro BTK Kinase Assay: BTK-POLYGAT-LS ASSAY. The note with it: ATP 10 μM, polyGAT 100 nM, BTK 0.25 nM, 30 minutes. The class given is biochemical. The method, boiled down: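 BTK (0.25 nM final) with 10 μM ATP and 100 nM polyGAT in pH 7.5 Tris buffer with MgCl2, DTT, Triton X-100 and casein; compound titrated 4-fold. Reaction 30 min, stopped with EDTA. Phosphorylation detected by TR-FRET with Tb-PY20 antibody after 45 min at room temperature; IC50 reported.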

Assay [2] concerns the target T1, BTK. Nature of the assay: In Vitro PD Assay in Human Whole Blood (pBTK assay). The class given is cell-based. The note with it: 37° C. for 30 min, 50% inhibition of ECL signal. A digest of the protocol: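 Heparinized human whole blood was spiked with serially diluted compound (0.1% DMSO final) and held 30 min at 37 °C. Samples were then lysed with protease and phosphatase inhibitors. Total BTK was captured and phosphotyrosine detected, with DMSO-only lysates ± phosphatase inhibitors serving as high and low controls.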

T1 sequence (Q06187 whole entry): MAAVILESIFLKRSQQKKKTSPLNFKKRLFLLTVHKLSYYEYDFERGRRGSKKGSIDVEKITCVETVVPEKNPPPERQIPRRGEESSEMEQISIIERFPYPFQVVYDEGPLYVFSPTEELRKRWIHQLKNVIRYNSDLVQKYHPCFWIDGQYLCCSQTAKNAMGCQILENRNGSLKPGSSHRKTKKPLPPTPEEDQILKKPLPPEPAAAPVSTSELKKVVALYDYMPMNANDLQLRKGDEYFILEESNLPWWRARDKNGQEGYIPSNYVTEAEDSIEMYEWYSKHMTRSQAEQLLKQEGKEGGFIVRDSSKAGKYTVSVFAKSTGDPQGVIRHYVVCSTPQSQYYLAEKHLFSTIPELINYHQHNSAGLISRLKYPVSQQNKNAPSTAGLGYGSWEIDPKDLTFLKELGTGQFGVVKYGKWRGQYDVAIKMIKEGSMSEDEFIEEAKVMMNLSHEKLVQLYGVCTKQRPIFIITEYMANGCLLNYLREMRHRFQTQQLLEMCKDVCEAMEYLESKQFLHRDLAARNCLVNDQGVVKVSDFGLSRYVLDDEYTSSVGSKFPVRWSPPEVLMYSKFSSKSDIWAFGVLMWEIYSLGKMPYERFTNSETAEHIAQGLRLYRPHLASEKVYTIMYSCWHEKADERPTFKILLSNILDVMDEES

With `CC(C)(C)c1nc(C(=O)N[C@@H]2CCCCc3cc(-c4ccnc(NC(=O)C5CC5)c4)ccc32)no1` [Compound 67, (R)-5-(tert-butyl)-N-(2-(2-(cyclopropanecarboxamido)pyridin-4-yl)-6,7,8,9-tetrahydro-5H-benzo[7]annulen-5-yl)-1,2,4-oxadiazole-3-carboxamide], the half-maximal inhibitory concentration (IC50) against BTK [1] was not above 1 nM; on BTK [2], not above 100 nM.
On the same counts, the results for `Cc1c(CNC(=O)c2noc(C(C)(C)C)n2)ccc(-c2ccnc(NC(=O)C3CC3)c2)c1Cl` [Compound 84, 5-(tert-butyl)-N-(3-chloro-4-(2-(cyclopropanecarboxamido)pyridin-4-yl)-2-methylbenzyl)-1,2,4-oxadiazole-3-carboxamide] are not above 1 nM and 100 to 500 nM.
On the same counts, the results for `C[C@@H](NC(=O)c1noc(C(C)(C)C)n1)c1ccc(-c2cc(NC(=O)C3CC3)ncc2F)cc1Cl` [Compound 22, (R)-5-(tert-butyl)-N-(1-(2-chloro-4-(2-(cyclopropanecarboxamido)-5-fluoropyridin-4-yl)phenyl)ethyl)-1,2,4-oxadiazole-3-carboxamide] are not above 1 nM and 100 to 500 nM.
On the same counts, the results for `C[C@@H](NC(=O)c1noc(C(C)(C)C)n1)c1ccc(-c2ccnc(NC(=O)C3CC3)c2)cc1Cl` [Compound 21, (R)-5-(tert-butyl)-N-(1-(2-chloro-4-(2-(cyclopropanecarboxamido)pyridin-4-yl)phenyl)ethyl)-1,2,4-oxadiazole-3-carboxamide] are not above 1 nM and not above 100 nM.
Turning to `Cc1cc(CNC(=O)c2noc(C(C)(C)C)n2)c(F)cc1-c1ccnc(NC(=O)C2CC2)c1` [Compound 102, 5-(tert-butyl)-N-(4-(2-(cyclopropanecarboxamido)pyridin-4-yl)-2-fluoro-5-methylbenzyl)-1,2,4-oxadiazole-3-carboxamide], the IC50 against BTK [1] lay in the range of 10 to 1000 nM; at BTK [2], 500 to 10000 nM.
On the same counts, the results for `C[C@@H](NC(=O)c1noc(C(C)(C)C)n1)c1ccc(-c2ccnc(NC(=O)C3CC3)c2)cc1OC(F)(F)F` [Compound 83, (R)-5-(tert-butyl)-N-(1-(4-(2-(cyclopropanecarboxamido)pyridin-4-yl)-2-(trifluoromethoxy)phenyl)ethyl)-1,2,4-oxadiazole-3-carboxamide] are 1 to 10 nM and 500 to 10000 nM.
With `CC(C)(C)c1nc(C(=O)NCc2cc(F)c(-c3ccnc(NC(=O)C4CC4)c3)cc2Cl)no1` [Compound 104, 5-(tert-butyl)-N-(2-chloro-4-(2-(cyclopropanecarboxamido)pyridin-4-yl)-5-fluorobenzyl)-1,2,4-oxadiazole-3-carboxamide], the IC50 at BTK [1] is not above 1 nM; against BTK [2] it was 100 to 500 nM.
`CC(C)(C)c1nc(C(=O)N[C@@H]2CCN(CC(F)(F)F)Cc3cc(-c4ccnc(NC(=O)C5CC5)c4)ccc32)no1` [Compound 10, (R)-5-(tert-butyl)-N-(8-(2-(cyclopropanecarboxamido)pyridin-4-yl)-2-(2,2,2-trifluoroethyl)-2,3,4,5-tetrahydro-1H-benzo[c]azepin-5-yl)-1,2,4-oxadiazole-3-carboxamide]: the IC50 on BTK [1] was not above 1 nM; at BTK [2], not above 100 nM.
For the molecule `CC(C)(C)c1nc(C(=O)NCc2ccc(-c3ccnc(NC(=O)C4CC4)c3)c(F)c2Cl)no1` [Compound 14, 5-(tert-butyl)-N-(2-chloro-4-(2-(cyclopropanecarboxamido)pyridin-4-yl)-3-fluorobenzyl)-1,2,4-oxadiazole-3-carboxamide], the values for the IC50 against BTK [1] and on BTK [2] were not above 1 nM and not above 100 nM, respectively.
On the same counts, the results for `Cc1cc(-c2ccnc(NC(=O)C3CC3)c2)ccc1CNC(=O)c1nnc(C(C)(C)C)o1` [Compound 90, 5-(tert-butyl)-N-(4-(2-(cyclopropanecarboxamido)pyridin-4-yl)-2-methylbenzyl)-1,3,4-oxadiazole-2-carboxamide] are 1 to 10 nM and 100 to 500 nM.
On to `Cc1cc(-c2ccnc(NC(=O)C3CC3)c2)ccc1CNC(=O)c1cnc(C(C)(C)C)s1` [Compound 81, 2-(tert-butyl)-N-(4-(2-(cyclopropanecarboxamido)pyridin-4-yl)-2-methylbenzyl)thiazole-5-carboxamide], for which the IC50 against BTK [1] lay within 1 to 10 nM; at BTK [2] it was 500 to 10000 nM.
On the same counts, the results for `CC(C)(C)c1nc(C(=O)NCc2ccc(-c3ccnc(NC(=O)C4CC4)c3)cc2OC(F)(F)F)no1` [Compound 107, 5-(tert-butyl)-N-(4-(2-(cyclopropanecarboxamido)pyridin-4-yl)-2-(trifluoromethoxy)benzyl)-1,2,4-oxadiazole-3-carboxamide] are not above 1 nM and not above 100 nM.
In the case of `CC(C)(C)c1nc(C(=O)NCc2ccc(-c3ccnc(NC(=O)C4CC4)c3)cc2C(C)(C)C)no1` [Compound 72], the IC50 against BTK [1] is 1 to 10 nM; at BTK [2], more than 10000 nM.
On the same counts, the results for `Cc1cc(-c2ccnc(NC(=O)C3CC3)c2)c(F)cc1CNC(=O)c1noc(C(C)(C)C)n1` [Compound 13, 5-(tert-butyl)-N-(4-(2-(cyclopropanecarboxamido)pyridin-4-yl)-5-fluoro-2-methylbenzyl)-1,2,4-oxadiazole-3-carboxamide] are not above 1 nM and not above 100 nM.
On the same counts, the results for `CCc1cc(-c2ccnc(NC(=O)C3CC3)c2)ccc1CNC(=O)c1noc(C(C)(C)C)n1` [Compound 73, 5-(tert-butyl)-N-(4-(2-(cyclopropanecarboxamido)pyridin-4-yl)-2-ethylbenzyl)-1,2,4-oxadiazole-3-carboxamide] are not above 1 nM and 500 to 10000 nM.
On the same counts, the results for `Cc1c(CNC(=O)c2cnc(C(C)(C)C)o2)ccc(-c2ccnc(NC(=O)C3CC3)c2)c1F` [Compound 32, 2-(tert-butyl)-N-(4-(2-(cyclopropanecarboxamido)pyridin-4-yl)-3-fluoro-2-methylbenzyl)oxazole-5-carboxamide] are not above 1 nM and 500 to 10000 nM.
Regarding `Cc1cc(-c2ccnc(NC(=O)C3CC3)c2)ccc1CNC(=O)c1cn(C(C)(C)C)nn1` [Compound 89, 1-(tert-butyl)-N-(4-(2-(cyclopropanecarboxamido)pyridin-4-yl)-2-methylbenzyl)-1H-1,2,3-triazole-4-carboxamide], the values for the IC50 on BTK [1] and on BTK [2] were 1 to 10 nM and 100 to 500 nM, respectively.
On the same counts, the results for `CC(C)(C)c1noc(C(=O)N[C@@H]2CCCCc3cc(-c4ccnc(NC(=O)C5CC5(F)F)c4)ccc32)n1` (stereo partly drawn) [Compound 58, 3-(tert-butyl)-N-((5R)-2-(2-(2,2-difluorocyclopropane-1-carboxamido)pyridin-4-yl)-6,7,8,9-tetrahydro-5H-benzo[7]annulen-5-yl)-1,2,4-oxadiazole-5-carboxamide] are not above 1 nM and 500 to 10000 nM.
Consider `CC(C)(C)n1cc(F)c(C(=O)NCc2ccc(-c3ccnc(NC(=O)C4CC4)c3)c(F)c2C2CC2)n1` [Compound 29, 1-(tert-butyl)-N-(4-(2-(cyclopropanecarboxamido)pyridin-4-yl)-2-cyclopropyl-3-fluorobenzyl)-4-fluoro-1H-pyrazole-3-carboxamide], for which the IC50 was in the range of 1 to 10 nM on BTK [1] and 500 to 10000 nM against BTK [2].
On the same counts, the results for `Cc1c(-c2ccnc(NC(=O)C3CC3)c2)ccc(CNC(=O)c2noc(C(C)(C)C)n2)c1F` [Compound 101, 5-(tert-butyl)-N-(4-(2-(cyclopropanecarboxamido)pyridin-4-yl)-2-fluoro-3-methylbenzyl)-1,2,4-oxadiazole-3-carboxamide] are not above 1 nM and 500 to 10000 nM.
On the same counts, the results for `Cc1c([C@@H](C)NC(=O)c2noc(C(C)(C)C)n2)ccc(-c2ccnc(NC(=O)C3CC3)c2)c1F` [Compound 71, (R)-5-(tert-butyl)-N-(1-(4-(2-(cyclopropanecarboxamido)pyridin-4-yl)-3-fluoro-2-methyphenyl)ethyl)-1,2,4-oxadiazole-3-carboxamide] are not above 1 nM and 500 to 10000 nM.
On the same counts, the results for `Cc1cc(-c2cc(NC(=O)C3CC3)ncc2F)c(F)cc1CNC(=O)c1noc(C(C)(C)C)n1` [Compound 103, 5-(tert-butyl)-N-(4-(2-(cyclopropanecarboxamido)5-fluoropyridin-4-yl)-5-fluoro-2-methylbenzyl)-1,2,4-oxadiazole-3-carboxamide] are not above 1 nM and 100 to 500 nM.
Turning to `Cc1c(CNC(=O)c2noc(C(C)(C)C)n2)ccc(-c2cc(NC(=O)C3CC3)ncc2F)c1F` [Compound 57, 5-(tert-butyl)-N-(4-(2-(cyclopropanecarboxamido)-5-fluoropyridin-4-yl)-3-fluoro-2-methylbenzyl)-1,2,4-oxadiazole-3-carboxamide], the IC50 against BTK [1] was not above 1 nM; at BTK [2], 500 to 10000 nM.
Consider `CC(C)(C)c1noc(C(=O)NCc2ccc(-c3ccnc(NC(=O)C4CC4)c3)c(F)c2C(F)(F)F)n1` [Compound 69, 3-(tert-butyl)-N-(4-(2-(cyclopropanecarboxamido)pyridin-4-yl)-3-fluoro-2-(trifluoromethyl)benzyl)-1,2,4-oxadiazole-5-carboxamide], for which the 50% inhibitory concentration (IC50) is not above 1 nM against BTK [1] and 100 to 500 nM against BTK [2].
On the same counts, the results for `CC(C)(C)c1noc(C(=O)NCc2ccc(-c3ccnc(NC(=O)C4CC4)c3)cc2OC(F)(F)F)n1` [Compound 80, 3-(tert-butyl)-N-(4-(2-(cyclopropanecarboxamido)pyridin-4-yl)-2-(trifluoromethoxy)benzyl)-1,2,4-oxadiazole-5-carboxamide] are not above 1 nM and 500 to 10000 nM.
As to `CC(C)c1cc(-c2ccnc(NC(=O)C3CC3)c2)ccc1CNC(=O)c1noc(C(C)(C)C)n1` [Compound 56, 5-(tert-butyl)-N-(4-(2-(cyclopropanecarboxamido)pyridin-4-yl)-2-isopropylbenzyl)-1,2,4-oxadiazole-3-carboxamide], the values for the IC50 at BTK [1] and at BTK [2] were 1 to 10 nM and more than 10000 nM, respectively.

One may read the IC50 as the concentration that inhibits the measured activity by half.
